Tested on: ATF4 translation (ISR pathway activation)
Assay: ATF4 Nano Luciferase reporter integrated stress response (ISR) assay in H4 ATF4-NLuc (clone 17) cells
Format: cell-based, human
Conditions: Homo sapiens, 0.5 h
From the text: Cellular stress leads to activation of the integrated stress response pathway through one of four eukaryotic initiation factor 2α kinases and halts global translation, while allowing for the translation of select transcripts like ATF4 (activating transcription factor 4) that are important for the response to cellular stress. During normal conditions, small open reading frames (ORFs) in the 5′ UTR of ATF4 occupy the ribosome and prevent translation of the coding sequence of ATF4. During stress conditions however, the ribosome scans past these upstream ORFs and preferentially begins translation at the coding sequence of ATF4. In this way, the translation, and thus protein level of ATF4 is a readout of ISR pathway activation. Thus, a fusion of the uORFs and the beginning of the coding sequence of ATF to a common cellular reporter like nano-luciferase allows for a sensitive and high-throughput readout of ISR pathway activity.
Compounds as provided herein were tested in the following assay. The ATF4 Nano Luciferase reporter was constructed by fusing the human full length 5′ untranslated region (5′-UTR) and a small portion of the coding sequence of the ATF4 gene upstream of the Nano Luciferase (NLuc) coding sequence lacking it's start codon. Specifically, nucleotides +1 through +364 (relative to the transcriptional start site) of ATF4 transcript variant 2 (NCBI NM_182810.2) flanked 5′ by EcoRI and 3′ by BamHI restriction enzyme sites were synthesized and cloned into the EcoRI/BamHI cloning sites of pLVX-EF1a-IRES-Puro lentivirus vector (Clontech). […]. H4 cells were selected with […] Puromycin, and clonal cell lines generated by limiting dilution. We utilized this cell line to generate an integrated stress response (ISR) assay to evaluate the activity of ISR pathway inhibitors via luminescence readout. The H4 ATF4-NLuc (clone 17) cell line is plated at a density of […] in 96-well or 384-well respectively in DMEM+10% fetal bovine serum. 24-hours later test compounds diluted in dimethyl sulfoxide (DMSO) are added for 30 minutes at 37 degree Celsius, followed by ISR pathway activation with 50 um sodium arsenite aqueous solution for 6 additional hours. Nano Glo luciferase reagent (N1150, Promega) is added according to manufacturer instructions and the luminescence signal (corresponding to the level of ATF4 translation and thus ISR pathway activation) is read with a standard plate reader with luminescence detection capabilities.
In the table below, activity of the tested compounds is provided in Table 3 as follows: +++=IC50<1 μM; ++=IC50 1-10 μM; +=IC50>10 μM.

| SMILES | IC50 |
| --- | --- |
| O=C(COc1ccc(Cl)c(F)c1)NC1C[C@H]2COC[C@@H](C1)N2c1cnn(C2CC(OC(F)(F)F)C2)c1 (stereo partly drawn) [Example 50, 2-(4-chloro-3-fluoro-phenoxy)-N-[(1S,5R,7r)-9-[1-[3-cis-(trifluoromethoxy)cyclobutyl]pyrazol-4-yl]-3-oxa-9-azabicyclo[3.3.1]nonan-7-yl]acetamide] | < 1000 nM |

Same assay, conditions: Homo sapiens, 0.5 h; H4 ATF4-NLuc (clone 17) cells; compounds 30 minutes at 37 degree Celsius, then 50 um sodium arsenite for 6 additional hours; luminescence readout; read-out: IC50

| SMILES | IC50 |
| --- | --- |
| CCOC1CC(OCC(=O)NC23CC(NC(=O)c4ccc5cc(C(F)(F)F)ccc5n4)(C2)C3)C1 (stereo not drawn) [Example 71, N-(3-(2-(3-cis-ethoxycyclobutoxy)acetamido)bicyclo[1.1.1]pentan-1-yl)-6-(trifluoromethyl)quinoline-2-carboxamide] | < 1000 nM |
| COC1CC(OCC(=O)NC23CC(NC(=O)COc4ccc(Cl)c(F)c4)(C2)C3)C1 (stereo not drawn) [Example 35, 2-(4-chloro-3-fluoro-phenoxy)-N-[3-[[2-(3-cis-methoxycyclobutoxy)acetyl]amino]-1-bicyclo[1.1.1]pentanyl]acetamide] | < 1000 nM |
| CC1CC(OCC(=O)NC23CC(NC(=O)COc4ccc(Cl)cc4)(C2)C3)C1 (stereo not drawn) [Example 36, 2-(4-chlorophenoxy)-N-[3-[[2-(3-cis-methylcyclobutoxy)acetyl]amino]-1-bicyclo[1.1.1]pentanyl]acetamide] | < 1000 nM |
| O=C(COc1ccc(Cl)c(F)c1)NC1CC2(CCN(C(=O)COC3CC(C(F)(F)F)C3)CC2)C1 (centres unmarked) [Example 16, 2-(4-chloro-3-fluoro-phenoxy)-N-[7-[2-[3-(trifluoromethyl)cyclobutoxy]acetyl]-7-azaspiro[3.5]nonan-2-yl]acetamide] | < 1000 nM |
| O=C(COc1ccc(Cl)c(F)c1)NC1CC2(C1)CN(C(=O)COC1CC(C(F)(F)F)C1)C2 (centres unmarked) [Example 17, 2-(4-chloro-3-fluoro-phenoxy)-N-[2-[2-[3-(trifluoromethyl)cyclobutoxy]acetyl]-2-azaspiro[3.3]heptan-6-yl]acetamide] | < 1000 nM |
| O=C(COc1ccc(Cl)cc1)NC12CC(NC(=O)COC3CC4(CCC4)C3)(C1)C2 [Example 4, 2-(4-chlorophenoxy)-N-(3-(2-(spiro[3.3]heptan-2-yloxy)acetamido)bicyclo[1.1.1]pentan-1-yl)acetamide] | < 1000 nM |
| O=C(COC1CC(OC(F)(F)F)C1)N[C@H]1CC[C@H](c2nnc(C3CC(OC(F)(F)F)C3)o2)CC1 (stereo partly drawn) [Example 30, 2-[3-cis-(trifluoromethoxy)cyclobutoxy]-N-[4-[5-[3-cis-(trifluoromethoxy)cyclobutyl]-1,3,4-oxadiazol-2-yl]cyclohexyl]acetamide] | < 1000 nM |
| O=C(COc1ccc(Cl)c(F)c1)NC1CCN(CCOC2CC(OC(F)(F)F)C2)C(=O)C1 (stereo not drawn) [Example 56, 2-(4-chloro-3-fluorophenoxy)-N-(2-oxo-1-(2-(3-cis-(trifluoromethoxy)cyclobutoxy)ethyl)piperidin-4-yl)acetamide] | < 1000 nM |
| O=C(COC1CC(F)C1)NC12CC(NC(=O)c3ccc4cc(C(F)(F)F)ccc4n3)(C1)C2 (stereo not drawn) [Example 53, N-[1-[[2-(3-trans-fluorocyclobutoxy)acetyl]amino]-3-bicyclo[1.1.1]pentanyl]-6-(trifluoromethyl)quinoline-2-carboxamide] | < 1000 nM |
| O=C(COc1ccc(Cl)c(F)c1)NC1CC2(CCN(C(=O)COC3CCC3)CC2)C1 [Example 15, 2-(4-chloro-3-fluoro-phenoxy)-N-[7-[2-(cyclobutoxy)acetyl]-7-azaspiro[3.5]nonan-2-yl]acetamide] | < 1000 nM |
| O=C(COC1CC(OC(F)(F)F)C1)NC12CC(NC(=O)COC3CC(OC(F)(F)F)C3)(C1)C2 (stereo not drawn) [Example 39, 2-[3-cis-(trifluoromethoxy)cyclobutoxy]-N-[3-[[2-[3-cis-(trifluoromethoxy)cyclobutoxy]acetyl]amino]-1-bicyclo[1.1.1]pentanyl]acetamide] | < 1000 nM |
| O=C(COc1ccc(Cl)c(F)c1)NC1CC(OCCOC2CC(OC(F)(F)F)C2)C1 (single isomer, unassigned) [42 (isomer 1), 2-(4-chloro-3-fluoro-phenoxy)-N-[3-[2-[3-cis-(trifluoromethoxy)cyclobutoxy]ethoxy]-cis-cyclobutyl]acetamide] | < 1000 nM |
| O=C(COC1CC(OC(F)(F)F)C1)NC1CC2(C1)CC(c1nnc(C3CC(OC(F)(F)F)C3)o1)C2 (stereo not drawn) [Example 32, 2-[3-cis-(trifluoromethoxy)cyclobutoxy]-N-[6-[5-[3-cis-(trifluoromethoxy)cyclobutyl]-1,3,4-oxadiazol-2-yl]spiro[3.3]heptan-2-yl]acetamide] | < 1000 nM |
| O=C(COc1ccc(Cl)c(F)c1)N[C@@H]1C[C@@H]2[C@H](C1)[C@H]2c1nnc(C2CC(OC(F)(F)F)C2)o1 (stereo partly drawn) [Example 43, 2-(4-chloro-3-fluoro-phenoxy)-N-[(1R,5S)-6-[5-[3-(trifluoromethoxy)cyclobutyl]-1,3,4-oxadiazol-2-yl]-3-bicyclo[3.1.0]hexanyl]acetamide] | < 1000 nM |
| O=C(COC1CC(OC(F)(F)F)C1)NC12CC(NC(=O)c3ccc4cc(C(F)(F)F)ccc4n3)(C1)C2 (stereo not drawn) [Example 51, N-[1-[[2-[3-cis-(trifluoromethoxy)cyclobutoxy]acetyl]amino]-3-bicyclo[1.1.1]pentanyl]-6-(trifluoromethyl)quinoline-2-carboxamide] | < 1000 nM |
| N#CC1CC(OCC(=O)NC23CC(NC(=O)COc4ccc(Cl)cc4)(C2)C3)C1 (centres unmarked) [Example 6, 2-(4-chlorophenoxy)-N-(3-(2-(3-cyanocyclobutoxy)acetamido)bicyclo[1.1.1]pentan-1-yl)acetamide] | < 1000 nM |
| O=C(COc1ccc(Cl)cc1)NC12CC(NC(=O)COC3CC(F)(F)C3)(C1)C2 [Example 2, 2-(4-chlorophenoxy)-N-(3-(2-(3,3-difluorocyclobutoxy)acetamido)bicyclo[1.1.1]pentan-1-yl)acetamide] | < 1000 nM |
| O=C(COc1ccc(Cl)c(F)c1)NC1CCN(CC(F)(F)COC2CC(OC(F)(F)F)C2)CC1 (stereo not drawn) [Example 57, 2-(4-chloro-3-fluorophenoxy)-N-(1-(2,2-difluoro-3-(3-cis-(trifluoromethoxy)cyclobutoxy)propyl)piperidin-4-yl)acetamide] | < 1000 nM |
| O=C(COc1ccc(Cl)c(F)c1)NC1CCN(c2nnc(C3CC(OC(F)(F)F)C3)o2)CC1 (stereo not drawn) [Example 26, 2-(4-chloro-3-fluoro-phenoxy)-N-[1-[5-[3-cis-(trifluoromethoxy)cyclobutyl]-1,3,4-oxadiazol-2-yl]-4-piperidyl]acetamide] | < 1000 nM |
| O=C(COC1CCC1)NC12CC(NC(=O)c3ccc4cc(Cl)ccc4n3)(C1)C2 [Example 65, 6-chloro-N-[1-[[2-(cyclobutoxy)acetyl]amino]-3-bicyclo[1.1.1]pentanyl]quinoline-2-carboxamide] | < 1000 nM |
| O=C(COc1ccc(Cl)c(F)c1)N[C@@H]1C[C@@H]2CN(C(=O)COC3CCC3)C[C@@H]2C1 [Example 41, 2-(4-chloro-3-fluorophenoxy)-N-((3aR,5r,6aS)-2-(2-cyclobutoxyacetyl)octahydrocyclopenta[c]pyrrol-5-yl)acetamide] | < 1000 nM |
| O=C(COc1ccc(Cl)c(F)c1)N[C@H]1C[C@@H]2CN(C(=O)COC3CCC3)C[C@@H]2C1 [Example 40, 2-(4-chloro-3-fluorophenoxy)-N-((3aR,5s,6aS)-2-(2-cyclobutoxyacetyl)octahydrocyclopenta[c]pyrrol-5-yl)acetamide] | < 1000 nM |
